Source: patent publication US20200360537A1, “A GANGLIOGLIOMA-INDUCED ANIMAL MODEL AND A METHOD FOR DIAGNOSING AND TREATING GANGLIOGLIOMA AND RELATED DISEASES” (KOREA ADVANCED INSTITUTE OF SCIENCE AND TECHNOLOGY, priority 2017, published 2020)

Tested on: BRAF V600E mutant mice
Experiment: Seizure reduction by BRAF V600E specific inhibitor in BRAF V600E mutant mice (video-EEG brainwave monitoring)
Assay type: in vivo, mouse

SMILES: CCCS(=O)(=O)Nc1ccc(F)c(C(=O)c2c[nH]c3ncc(-c4ccc(Cl)cc4)cc23)c1F [BRAF V600E specific inhibitor, Vemurafenib]
- seizure frequency (acute intracerebroventricular injection (3 times/day, 5 uL injection for 8 minutes), FIG. 17 left): not reduced
- seizures over time (electrophysiologically confirmed) (cICV treatment for 6 weeks, FIG. 15 C): continuously reduced
- reduction of icta (ictal) seizures (chronic intracranioventricular injection (cICV), 500 um PLX4032 via osmotic pump, vs vehicle, FIG. 15 B): about 4 times
- seizure frequency (oral administration (PO, per oral), FIG. 17 right): not reduced
